According to patent publication US20050244936A1, “Hydantoin-racemase” (DEGUSSA AG, priority 1999, published 2005):

Tests used:
HyuA = test: Substrate specificity of HyuA: racemization of 5-substituted hydantoins by ORD polarimetry; format: biochemical, Arthrobacter aurescens DSM 3747; settings: substrate conc. 0.9 mM; 100% racemase activity corresponds to 313 μ/mg by standard assay
Method: Racemization of the 5-substituted hydantoins BH, IMH and MTEH by HyuA was examined (Tab. 2).
Enzyme assays. Racemization of L-BH was measured by ORD-polarimerty (Model 341, Perkin Elmer Bodenseewerk, Überlingen, Germany) at a wavelength of 295 nm in the standard assay for racemase enzyme activity. 3 MM L-BH was dissolved in 0.1 M Tris, pH 3 at 45° C. in an ultrasonic waterbath, cooled to room temperature and the pH adjusted to pH 8.5 with 3 M NaOH. To 1 ml substrate solution 0.1 ml enzyme, diluted in 0.1 M Tris, pH 8.5, was added and the change in optical rotation determined at 37° C. by polarimetry (Teves et al., Fresenius' J. Anal. Chem. 1999, 363, 738-743). The racemization of MTEH and IMH by. HyuA was determined at substrate concentrations of 0.9 mM and recorded by ORD at 253 nm and 334 nm. The specific activities were calculated from initial reaction rates which were determined according to Teves et al. (1999). For determination of enzyme activity by HPLC, 1 mM L-IMH was dissolved as described above. The mixture containing 900 μl enzyme solution was incubated 5 min at 37° C. The reaction was stopped by addition of 400 μl 14% trichloroacetic acid and centrifugation in an Eppendorf centrifuge at full speed. 100 μl of the sample were diluted with 0.9 ml 0.1 M TrisHCl, pH 8.5, and D-IMH and L-IMH in the supernatant were separated by HPLC (Thermoseparation Products, Darmstadt, Germany) by injection of 20 μl sample into a Chiralpak WH-column (0.46×25 cm; Daicel Chemicals Industris LTD, Griesheim, Germany). The column was equilibrated with 0.25 mM CuSO4, pH 5.5. The flow rate was 1 ml/min at 50° C. and IMH detected at 254 nm. The chemical racemization of the substrate was taken into account. Racemization of […] substrate per minute was defined as one unit enzyme.

racemase HyuA = test: Initial velocities at different concentrations of L-MTEH (kinetic plot); format: biochemical, Arthrobacter aurescens DSM 3747; settings: FIG. 6
Method: The KM values of IMH and BH could not be determined due to the limited solubility of the substrates. Instead the initial velocities at different concentrations of L-MTEH were measured. […] Even at low substrate concentrations (>5 mM) inhibition is observed.
Enzyme assays. Racemization of L-BH was measured by ORD-polarimerty (Model 341, Perkin Elmer Bodenseewerk, Überlingen, Germany) at a wavelength of 295 nm in the standard assay for racemase enzyme activity. 3 MM L-BH was dissolved in 0.1 M Tris, pH 3 at 45° C. in an ultrasonic waterbath, cooled to room temperature and the pH adjusted to pH 8.5 with 3 M NaOH. To 1 ml substrate solution 0.1 ml enzyme, diluted in 0.1 M Tris, pH 8.5, was added and the change in optical rotation determined at 37° C. by polarimetry (Teves et al., Fresenius' J. Anal. Chem. 1999, 363, 738-743). The racemization of MTEH and IMH by. HyuA was determined at substrate concentrations of 0.9 mM and recorded by ORD at 253 nm and 334 nm. The specific activities were calculated from initial reaction rates which were determined according to Teves et al. (1999). For determination of enzyme activity by HPLC, 1 mM L-IMH was dissolved as described above. The mixture containing 900 μl enzyme solution was incubated 5 min at 37° C. […] The flow rate was 1 ml/min at 50° C. and IMH detected at 254 nm. […]

[1] = room temperature, pH 8.5, 20 hour; cited from earlier work

Row | Structure (SMILES) | Relative Activity (HyuA) [%] | substrate concentration at which inhibition of the racemase is observed (racemase HyuA) [mM] | fraction racemized to D-IMH (chemical racemization) [1]
1 | O=C1NC(=O)[C@@H](Cc2c[nH]c3ccccc23)N1 [D-IMH] | 12 |  | 
2 | CSCCC1NC(=O)NC1=O [L-MTEH] | 7 | > 5 | 
3 | CSCCC1NC(=O)NC1=O [D-MTEH] | 8 |  | 
4 | O=C1NC(=O)[C@H](Cc2c[nH]c3ccccc23)N1 [L-IMH] | 13 |  | about 10%
5 | O=C1NC(=O)[C@@H](Cc2ccccc2)N1 [D-BH, D-Benzylhydantoin] | 95 |  | 
